Test results reported in the supplement of paper PMC13386468.

Experiments:
Assay in all cases: IC50 for competition of protein binding to Kinobeads
Details in all cases: assay detail: Kinobeads competition in P. falciparum blood-stage lysate
UniProt Q8II62 = target: UniProt Q8II62
UniProt O96220 = target: UniProt O96220
UniProt Q8IDV5 = target: UniProt Q8IDV5
UniProt C6KT25 = target: UniProt C6KT25
UniProt Q8IAV6 = target: UniProt Q8IAV6
UniProt Q8IIC0 = target: UniProt Q8IIC0
UniProt Q8IHT4 = target: UniProt Q8IHT4
UniProt Q8I5B2 = target: UniProt Q8I5B2
UniProt Q8IBZ2 = target: UniProt Q8IBZ2
UniProt Q8IJM0 = target: UniProt Q8IJM0
UniProt Q8IL71 = target: UniProt Q8IL71
UniProt O15770 = target: UniProt O15770
UniProt Q8I5E2 = target: UniProt Q8I5E2
UniProt Q8I5B3 = target: UniProt Q8I5B3
UniProt Q8IL80 = target: UniProt Q8IL80
UniProt Q8IJX3 = target: UniProt Q8IJX3
UniProt C0H586 = target: UniProt C0H586
UniProt P62344 = target: UniProt P62344
UniProt Q6ZMA7 = target: UniProt Q6ZMA7
UniProt Q8IEM3 = target: UniProt Q8IEM3
UniProt Q8IJX0 = target: UniProt Q8IJX0
UniProt Q8IFP2 = target: UniProt Q8IFP2
UniProt Q8I467 = target: UniProt Q8I467
UniProt Q8ILJ7 = target: UniProt Q8ILJ7
UniProt O96258 = target: UniProt O96258
UniProt Q8I259 = target: UniProt Q8I259
UniProt Q8ILQ7 = target: UniProt Q8ILQ7
UniProt Q8IJT8 = target: UniProt Q8IJT8
UniProt Q6ZMA8 = target: UniProt Q6ZMA8
UniProt Q8I1T8 = target: UniProt Q8I1T8
UniProt Q8IDF9 = target: UniProt Q8IDF9
UniProt Q8IB72 = target: UniProt Q8IB72
UniProt Q8ILV2 = target: UniProt Q8ILV2
UniProt Q76NM6 = target: UniProt Q76NM6
UniProt Q8I6T3 = target: UniProt Q8I6T3
UniProt Q8I323 = target: UniProt Q8I323
UniProt Q8IJN8 = target: UniProt Q8IJN8
UniProt Q8IC33 = target: UniProt Q8IC33
UniProt Q8IC16 = target: UniProt Q8IC16
UniProt Q8I2I2 = target: UniProt Q8I2I2
UniProt Q8IDM3 = target: UniProt Q8IDM3
UniProt Q8IHZ9 = target: UniProt Q8IHZ9
UniProt Q8IJ37 = target: UniProt Q8IJ37
UniProt Q8IB31 = target: UniProt Q8IB31
UniProt Q8ILS0 = target: UniProt Q8ILS0
UniProt Q8IKQ7 = target: UniProt Q8IKQ7
UniProt Q8IBS3 = target: UniProt Q8IBS3
UniProt Q8IKN7 = target: UniProt Q8IKN7
UniProt Q8I447 = target: UniProt Q8I447
UniProt Q8ID59 = target: UniProt Q8ID59
UniProt Q8IDM2 = target: UniProt Q8IDM2
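Further: native unpurified kinases from lysate captured on beads bearing immobilized kinase inhibitors, with bead-bound kinases quantified by mass spectrometry across compound doses.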

UniProt Q8I1T8, sequence (Q8I1T8 whole entry): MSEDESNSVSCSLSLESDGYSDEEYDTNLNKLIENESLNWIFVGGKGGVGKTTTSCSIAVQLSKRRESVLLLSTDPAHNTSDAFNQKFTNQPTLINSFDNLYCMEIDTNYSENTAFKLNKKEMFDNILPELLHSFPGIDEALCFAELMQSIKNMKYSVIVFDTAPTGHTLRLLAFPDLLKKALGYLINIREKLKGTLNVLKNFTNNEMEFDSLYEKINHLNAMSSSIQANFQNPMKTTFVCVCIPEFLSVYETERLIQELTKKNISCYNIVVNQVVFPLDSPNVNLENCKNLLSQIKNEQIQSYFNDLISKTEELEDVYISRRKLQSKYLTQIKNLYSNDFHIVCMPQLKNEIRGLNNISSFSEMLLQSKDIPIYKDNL
UniProt O15770, sequence (O15770 whole entry): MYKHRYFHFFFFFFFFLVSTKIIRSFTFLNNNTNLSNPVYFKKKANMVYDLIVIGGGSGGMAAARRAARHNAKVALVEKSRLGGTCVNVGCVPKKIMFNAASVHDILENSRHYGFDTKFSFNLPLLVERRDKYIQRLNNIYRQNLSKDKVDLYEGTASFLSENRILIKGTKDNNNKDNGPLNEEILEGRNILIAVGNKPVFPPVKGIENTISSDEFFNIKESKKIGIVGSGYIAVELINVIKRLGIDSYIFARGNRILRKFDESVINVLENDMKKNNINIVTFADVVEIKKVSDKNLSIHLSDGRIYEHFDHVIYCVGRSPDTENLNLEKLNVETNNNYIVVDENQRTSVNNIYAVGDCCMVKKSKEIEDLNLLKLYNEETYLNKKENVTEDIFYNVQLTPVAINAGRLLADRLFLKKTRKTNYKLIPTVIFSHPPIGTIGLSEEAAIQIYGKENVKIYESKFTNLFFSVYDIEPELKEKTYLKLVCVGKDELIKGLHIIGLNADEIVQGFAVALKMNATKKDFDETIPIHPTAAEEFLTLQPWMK
UniProt P62344, sequence (P62344 whole entry, looked up): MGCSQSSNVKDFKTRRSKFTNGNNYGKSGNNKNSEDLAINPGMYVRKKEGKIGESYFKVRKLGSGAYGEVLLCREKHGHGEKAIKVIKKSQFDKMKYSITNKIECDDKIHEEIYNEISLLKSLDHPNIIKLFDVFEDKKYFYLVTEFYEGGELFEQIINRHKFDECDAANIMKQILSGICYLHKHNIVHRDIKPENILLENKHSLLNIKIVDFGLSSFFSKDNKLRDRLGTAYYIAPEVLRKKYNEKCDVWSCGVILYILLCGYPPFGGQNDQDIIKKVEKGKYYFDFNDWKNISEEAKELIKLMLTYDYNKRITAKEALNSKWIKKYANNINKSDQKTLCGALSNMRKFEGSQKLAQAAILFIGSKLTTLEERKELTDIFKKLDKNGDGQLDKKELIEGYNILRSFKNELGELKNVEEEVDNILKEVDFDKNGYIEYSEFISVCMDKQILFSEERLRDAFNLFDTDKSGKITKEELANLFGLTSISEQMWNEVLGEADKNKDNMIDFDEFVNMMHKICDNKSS
UniProt Q6ZMA7, sequence (Q6ZMA7 whole entry): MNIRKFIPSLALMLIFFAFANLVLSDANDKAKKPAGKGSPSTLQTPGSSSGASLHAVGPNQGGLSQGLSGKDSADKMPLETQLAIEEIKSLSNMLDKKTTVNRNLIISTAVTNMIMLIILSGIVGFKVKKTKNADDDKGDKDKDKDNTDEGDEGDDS
UniProt Q8I467, sequence (Q8I467 whole entry): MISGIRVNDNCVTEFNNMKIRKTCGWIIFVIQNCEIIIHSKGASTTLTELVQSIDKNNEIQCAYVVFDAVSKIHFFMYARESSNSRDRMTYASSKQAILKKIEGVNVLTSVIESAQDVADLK
UniProt Q76NM6, sequence (Q76NM6 whole entry): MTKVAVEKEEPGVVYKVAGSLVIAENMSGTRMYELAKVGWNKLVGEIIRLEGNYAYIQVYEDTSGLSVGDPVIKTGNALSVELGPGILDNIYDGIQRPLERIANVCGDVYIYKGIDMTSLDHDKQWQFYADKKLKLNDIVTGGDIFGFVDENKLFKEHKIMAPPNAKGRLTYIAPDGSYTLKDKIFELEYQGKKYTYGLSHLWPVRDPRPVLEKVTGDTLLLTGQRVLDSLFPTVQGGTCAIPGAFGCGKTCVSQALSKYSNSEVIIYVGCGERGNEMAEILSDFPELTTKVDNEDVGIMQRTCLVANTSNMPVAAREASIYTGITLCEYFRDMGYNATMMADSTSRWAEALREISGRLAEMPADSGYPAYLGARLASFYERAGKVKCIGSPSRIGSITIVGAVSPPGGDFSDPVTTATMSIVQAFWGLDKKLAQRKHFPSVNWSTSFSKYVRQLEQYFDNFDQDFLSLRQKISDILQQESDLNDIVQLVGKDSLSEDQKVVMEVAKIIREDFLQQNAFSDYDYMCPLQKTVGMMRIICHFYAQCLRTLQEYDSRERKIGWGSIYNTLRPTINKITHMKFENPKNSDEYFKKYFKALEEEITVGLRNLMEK
UniProt Q8IHZ9, sequence (Q8IHZ9 whole entry): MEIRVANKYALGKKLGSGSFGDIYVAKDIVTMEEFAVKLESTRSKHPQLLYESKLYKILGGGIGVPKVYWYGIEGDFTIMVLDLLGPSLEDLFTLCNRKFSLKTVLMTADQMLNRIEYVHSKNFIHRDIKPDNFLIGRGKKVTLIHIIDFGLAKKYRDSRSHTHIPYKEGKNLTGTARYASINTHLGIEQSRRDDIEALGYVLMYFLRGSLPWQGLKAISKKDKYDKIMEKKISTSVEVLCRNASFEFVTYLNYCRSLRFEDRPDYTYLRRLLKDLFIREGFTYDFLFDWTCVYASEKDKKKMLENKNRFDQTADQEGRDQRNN
UniProt Q8ILQ7, sequence (Q8ILQ7 whole entry): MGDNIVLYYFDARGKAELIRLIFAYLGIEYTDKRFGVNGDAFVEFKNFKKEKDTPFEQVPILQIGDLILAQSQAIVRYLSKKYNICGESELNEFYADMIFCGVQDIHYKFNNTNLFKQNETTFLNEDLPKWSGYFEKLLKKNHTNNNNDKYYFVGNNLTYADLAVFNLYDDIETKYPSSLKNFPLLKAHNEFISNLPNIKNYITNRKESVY

`O=c1[nH]c2ccc(Cl)cc2c(NC2CN3CCC2CC3)c1-c1nc2ccccc2[nH]1` (stereo unspecified) [CHIR-124] gave an IC50 (UniProt Q8II62) of over 20 µM, an IC50 (UniProt O96220) of over 20 µM and an IC50 (UniProt Q8IDV5) of over 20 µM. The IC50 (UniProt C6KT25) was over 20 µM, the IC50 (UniProt Q8IAV6) was over 20 µM and the IC50 (UniProt Q8IIC0) was over 20 µM. It also gave an IC50 (UniProt Q8IHT4) of over 20 µM, an IC50 (UniProt Q8I5B2) of over 20 µM and an IC50 (UniProt Q8IBZ2) of over 20 µM. It also gave an IC50 (UniProt Q8IJM0) of over 20 µM, an IC50 (UniProt Q8IL71) of over 20 µM and an IC50 (UniProt O15770) of over 20 µM. It also gave an IC50 (UniProt Q8I5E2) of over 20 µM, an IC50 (UniProt Q8I5B3) of over 20 µM and an IC50 (UniProt Q8IL80) of over 20 µM. It also gave an IC50 (UniProt Q8IJX3) of over 20 µM, an IC50 (UniProt C0H586) of over 20 µM and an IC50 (UniProt P62344) of under 0.0823 µM. For the same compound, the IC50 (UniProt Q6ZMA7) was over 20 µM, the IC50 (UniProt Q8IEM3) was over 20 µM and the IC50 (UniProt Q8IJX0) was over 20 µM. It also gave an IC50 (UniProt Q8IFP2) of over 20 µM, an IC50 (UniProt Q8I467) of over 20 µM and an IC50 (UniProt Q8ILJ7) of over 20 µM. The IC50 (UniProt O96258) was over 20 µM, the IC50 (UniProt Q8I259) was over 20 µM and the IC50 (UniProt Q8ILQ7) was over 20 µM. It also gave an IC50 (UniProt Q8IJT8) of over 20 µM, an IC50 (UniProt Q6ZMA8) of over 20 µM and an IC50 (UniProt Q8I1T8) of over 20 µM. For the same compound, the IC50 (UniProt Q8IDF9) was over 20 µM, the IC50 (UniProt Q8IB72) was over 20 µM and the IC50 (UniProt Q8ILV2) was over 20 µM. The IC50 (UniProt Q76NM6) was over 20 µM, the IC50 (UniProt Q8I6T3) was over 20 µM and the IC50 (UniProt Q8I323) was over 20 µM. For the same compound, the IC50 (UniProt Q8IJN8) was over 20 µM, the IC50 (UniProt Q8IC33) was over 20 µM and the IC50 (UniProt Q8IC16) was over 20 µM. For the same compound, the IC50 (UniProt Q8I2I2) was over 20 µM, the IC50 (UniProt Q8IDM3) was over 20 µM and the IC50 (UniProt Q8IHZ9) was over 20 µM. It also gave an IC50 (UniProt Q8IJ37) of over 20 µM, an IC50 (UniProt Q8IB31) of over 20 µM and an IC50 (UniProt Q8ILS0) of over 20 µM. For the same compound, the IC50 (UniProt Q8IKQ7) was over 20 µM, the IC50 (UniProt Q8IBS3) was over 20 µM and the IC50 (UniProt Q8IKN7) was over 20 µM. The IC50 (UniProt Q8I447) was over 20 µM, the IC50 (UniProt Q8ID59) was over 20 µM and the IC50 (UniProt Q8IDM2) was over 20 µM.
